Measured values published in US20160319277A1, “METHODS OF IMPROVED PROTEIN PRODUCTION USING MIRNAs AND SIRNAs” (THE JOHNS HOPKINS UNIVERSITY, priority 2015, published 2016).

Test system: HEK-CMV-Luc2-Hygro cells
Test: High-throughput genome-wide siRNA screen and validation screen for luciferase expression
Type: cell-based, human
Settings: Table 3, primary screen, 72 h; for per_cell: per cell luciferase yield relative to negative control; for VIA: viable cell density as % of negative control
Procedure: The Silencer Select™ Human genome siRNA library (Ambion), which targets 21,585 human genes with 3 siRNAs per gene, was used for screening. Each siRNA is arrayed in an individual well (Corning 3570, 384 well, white, solid bottom plates). The transfection was done in duplicates: 0.8 pmol of each siRNA was spotted to a well of a 384-well plate (Corning) and 20 μL of serum-free DMEM containing 0.07 μL of Lipofectamine™ RNAiMax (Life Technologies) was then added to each well. This lipid-siRNA mixture was incubated at ambient temperature for 30 min prior to addition of 4000 cells in 20 μL of DMEM containing 20% FBS (Gibco). After incubating the transfected cells at 37° C. in 5% CO2 for 72 hours, 20 μL of ONE-Glo™ Reagent (Promega) was added to one set of replicates for ‘overall luciferase yield’ quantification and 20 μL of CellTiter-Glo™ Reagent (Promega) was added to the second set of replicates for ‘viable cell density’ measurement. All plates were incubated at room temperature for 20 minutes to stabilize the luminescent signal and the signal was then measured with PerkinElmer Envision 2104 Multilabel™ plate reader.
The 56 genes which got targeted by at least two independent siRNAs (out of three) resulting in enhanced luciferase production with MAD-based z-score>3 from the primary screen were subjected to validation screen using 3 additional Silencer™ siRNAs (Ambion) with different sequences from those used in the primary screen. […] The transfection and assay processes were-the same as the primary genome-wide screen. Data visualization was performed in R computational environment (available on the World Wide Web at R-project.org/) by using ‘hexbin’ and ‘ggplot2’ packages.
The screen generated end-point data for ‘overall luciferase yield’ and ‘viable cell density’ in each well. For each plate, the median value of the negative control wells was set as 100% and was used to normalize corresponding sample wells. The ‘overall luciferase yield’ and ‘viable cell density’ were exported as % of negative control and the median absolute deviation (MAD)-based z-score was calculated for each sample.

Substance | per_cell | VIA
38 (GCAGUGGACAUAGAAGAGATT; chemistry not given here; listed as Homo sapiens) [compound 38] | 140.7 | 110.8
39 (CGCUUUAACUGGAAGCUCUTT; chemistry not given here; listed as Homo sapiens) [compound 39] | 147 | 103.7
40 (CGAUGUUCGUGGACAUUCUTT; chemistry not given here; listed as Homo sapiens) [compound 40] | 234.6 | 80.01
41 (CAACAGUACUUACCGAUGUTT; chemistry not given here; listed as Homo sapiens) [compound 41] | 141.8 | 115.5
42 (CAAGUCACCUGUUACCUCATT; chemistry not given here; listed as Homo sapiens) [compound 42] | 171.8 | 88.96
43 (GCUAAGUCUUUUCCACAGUTT; chemistry not given here; listed as Homo sapiens) [compound 43] | 155.4 | 94.54
44 (CAACAGAUCAGAGAACAAATT; chemistry not given here; listed as Homo sapiens) [compound 44] | 156.4 | 92.43
45 (GGAUAUUGGAGGCUAGUCATT; chemistry not given here; listed as Homo sapiens) [compound 45] | 157.9 | 89.68
46 (CUCUUAUGGUAACCAAUGATT; chemistry not given here; listed as Homo sapiens) [compound 46] | 160.2 | 91.56
47 (GUACCUGCGGGAUUACUCATT; chemistry not given here; listed as Homo sapiens) [compound 47] | 160.7 | 90.99
48 (GCAAUGCUUGCAAAACUCATT; chemistry not given here; listed as Homo sapiens) [compound 48] | 189.3 | 90.98
49 (CGAAACUUGUCAACGGGAATT; chemistry not given here; listed as Homo sapiens) [compound 49] | 179.2 | 104.6
50 (GGAGGAAUCUCGAAUGCGATT; chemistry not given here; listed as Homo sapiens) [compound 50] | 173.3 | 96
51 (CCAGCGAUACAACUCCUAUTT; chemistry not given here; listed as Homo sapiens) [compound 51] | 176.8 | 83.64
52 (GGAAGAACGUCUUGCACAATT; chemistry not given here; listed as Homo sapiens) [compound 52] | 183.1 | 85.47
53 (GAACAAAAUAGACCUCUUATT; chemistry not given here; listed as Homo sapiens) [compound 53] | 162.7 | 101.9
54 (GCAUCUGUCCGAUCGCUCUTT; chemistry not given here; listed as Homo sapiens) [compound 54] | 143.9 | 105.5
55 (CAACGGGACUAUUAUGAUATT; chemistry not given here; listed as Homo sapiens) [compound 55] | 163.4 | 89.58
56 (CAACGGGACUAUUAUGAUATT; chemistry not given here; listed as Homo sapiens) [compound 56] | 163.5 | 97.39
57 (GAACGAGUACAGCAAUAUATT; chemistry not given here; listed as Homo sapiens) [compound 57] | 140.9 | 108.2
58 (ACAGGUCUUUAUCAAAGCATT; chemistry not given here; listed as Homo sapiens) [compound 58] | 3.426 | 100.2
59 (AGAUCUUUGUCAAGGUGUATT; chemistry not given here; listed as Homo sapiens) [compound 59] | 153.4 | 96.26
60 (GGCGAAUGCUCCUGACUAATT; chemistry not given here; listed as Homo sapiens) [compound 60] | 157 | 103.9

Substance | per_cell | VIA
61 (GGACGGAAGCGAAAAUCGATT; chemistry not given here; listed as Homo sapiens) [compound 61] | 216.2 | 71.47
62 (AGGUCAAUGUGACUUUCCATT; chemistry not given here; listed as Homo sapiens) [compound 62] | 161.8 | 105
63 (CCUGGACAGUUUGAAGCAATT; chemistry not given here; listed as Homo sapiens) [compound 63] | 174.9 | 88.01
64 (GAUCGUUUGAGAGAACAAATT; chemistry not given here; listed as Homo sapiens) [compound 64] | 210.3 | 77.11
65 (GCCUAGGAGUUAUCCUCUATT; chemistry not given here; listed as Homo sapiens) [compound 65] | 137.6 | 112.2
66 (GCAACAGAAUCGAGCAAGATT; chemistry not given here; listed as Homo sapiens) [compound 66] | 154.3 | 105.6
67 (GGAUGACGAGCUGAACUUUTT; chemistry not given here; listed as Homo sapiens) [compound 67] | 140.1 | 113.4
68 (CAGGUAGUGUAAGCCCUCATT; chemistry not given here; listed as Homo sapiens) [compound 68] | 303 | 66.87
69 (CCCUCCUACUAUUACCCGUTT; chemistry not given here; listed as Homo sapiens) [compound 69] | 163 | 96.87
70 (GAUUAUCCUUGUACUUUGATT; chemistry not given here; listed as Homo sapiens) [compound 70] | 141.8 | 101.9
71 (GAUUACUUCUUGACUAUCATT; chemistry not given here; listed as Homo sapiens) [compound 71] | 150.8 | 123.2
72 (GCUCCUCUGUUACCACAGATT; chemistry not given here; listed as Homo sapiens) [compound 72] | 179.3 | 91.53
73 (GUCCGAGUGUGGUUCUGUATT; chemistry not given here; listed as Homo sapiens) [compound 73] | 180.4 | 85.82
74 (CUUCGACAGUACUUCCGGATT; chemistry not given here; listed as Homo sapiens) [compound 74] | 161.6 | 104
75 (GCUCAUCGACAUCAAAGUUTT; chemistry not given here; listed as Homo sapiens) [compound 75] | 170.1 | 97.01
76 (CUUUUAAUGUUAAACUACATT; chemistry not given here; listed as Homo sapiens) [compound 76] | 133.6 | 111
77 (CAAUGGAACAAUCAAAGUUTT; chemistry not given here; listed as Homo sapiens) [compound 77] | 180.8 | 89.61
78 (CGGAAUCAAUGAUCCUGUATT; chemistry not given here; listed as Homo sapiens) [compound 78] | 212.7 | 71.39
79 (AAGUCAACAUAGCCCGAAATT; chemistry not given here; listed as Homo sapiens) [compound 79] | 145.7 | 111.5
80 (CAAUGAUUCUUACCCUCAATT; chemistry not given here; listed as Homo sapiens) [compound 80] | 257.9 | 77.17
81 (GUUUCAUCUGGGUUCGCUATT; chemistry not given here; listed as Homo sapiens) [compound 81] | 233.6 | 62.66
82 (GUCCUAUCACCGUAUCUUATT; chemistry not given here; listed as Homo sapiens) [compound 82] | 266.6 | 55.96
